Source: patent US20020028945A1, “Heterocyclo substituted hydroxamic acid derivatives as cyclooxygenase-2 and 5-lipoxygenase inhibitors” (priority 1996, published 2002)

How the values were obtained:
5-lipoxygenase (5-LO) = molecular target: T1, 5-lipoxygenase (5-LO) (Homo sapiens, UniProt P09917); assay: 5-Lipoxygenase activity: calcium ionophore-induced LTB4 production in human whole blood; type: cell-based; settings: A-23187 20 μg/ml, LTB4 by ELISA, mean IC50
T1 construct: Leukotriene B4 (LTB4) production in human whole blood; from tissue; host or cells: human whole blood (healthy donors, heparinized)
T1 sequence (P09917 1-674): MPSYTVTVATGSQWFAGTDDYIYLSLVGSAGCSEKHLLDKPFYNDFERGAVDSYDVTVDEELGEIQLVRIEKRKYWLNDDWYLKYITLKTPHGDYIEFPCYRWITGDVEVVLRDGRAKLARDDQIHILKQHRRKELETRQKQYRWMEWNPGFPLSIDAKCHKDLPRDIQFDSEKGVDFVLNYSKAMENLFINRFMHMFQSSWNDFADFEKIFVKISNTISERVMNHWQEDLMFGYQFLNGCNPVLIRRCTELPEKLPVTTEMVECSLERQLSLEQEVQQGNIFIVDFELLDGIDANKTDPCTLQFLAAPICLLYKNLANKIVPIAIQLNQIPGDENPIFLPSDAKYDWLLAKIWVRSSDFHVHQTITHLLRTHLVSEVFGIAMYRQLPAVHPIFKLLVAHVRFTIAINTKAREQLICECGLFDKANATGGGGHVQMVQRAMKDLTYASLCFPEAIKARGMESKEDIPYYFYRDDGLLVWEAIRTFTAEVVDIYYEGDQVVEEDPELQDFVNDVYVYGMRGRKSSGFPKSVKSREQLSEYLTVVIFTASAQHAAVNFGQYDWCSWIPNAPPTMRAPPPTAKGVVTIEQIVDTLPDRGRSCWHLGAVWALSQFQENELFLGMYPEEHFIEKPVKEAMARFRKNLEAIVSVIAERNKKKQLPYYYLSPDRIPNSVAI
Description: Assay for 5-Lipoxygenase activity
The 5-lipoxygenase (5-LO) activity of the compounds were determined by the calcium ionophore-induced Leukotriene B4 (LTB4) production in human whole blood. Venous blood was collected from healthy human donors using heparin as an anti-coagulant. Human blood samples (0.2 ml of a 1:4 dilution in RPMI 1640 medium) were incubated in 96-well culture plates for 15 minutes at 37° C. with test compounds dissolved in ethanol (EtOH; final concentration <1%), or vehicle. Typically 7 concentrations of test compounds were examined in duplicate. A-23187 [Sigma] was added to the blood to a final concentration of 20 μg/ml, and the mixtures were incubated for 10 minutes at 37° C. The reaction was stopped by placing the samples on ice. The samples were then centrifuged at 800×g at 4° C. for 10 minutes to pellet the cells, and the supernatants were recovered for quantitation of LTB4 by ELISA (Cayman Chemical Co.; sensitivity 3 pg/ml). IC50's were estimated from a four parameter logistic model with two parameters fixed, the minimum (0% inhibition) and maximum (100% inhibition). The IC50 value is the concentration that produces 50% inhibition between the fixed values of the minimum and maximum. Data is reported as the mean IC50 for each compound.

COX-1 = COX-1 (UniProt P23219); assay: COX-1 activity in vitro (PGE2 ELISA, recombinant enzyme); type: biochemical, human or murine; settings: recombinant COX-1, arachidonic acid 10 μM
Description: Evaluation of COX-1 and COX-2 activity in vitro a. Preparation of recombinant COX baculoviruses
(§1) Recombinant COX-1 and COX-2 were prepared as described by Gierse et al, [J. Biochem., 305, 479-84 (1995)]. A 2.0 kb fragment containing the coding region of either human or murine COX-1 or human or murine COX-2 was cloned into a BamH1 site of the baculovirus tra nsfer vector pVL1393 (Invitrogen) to generate the baculovirus transfer vectors for COX-1 and coX-2 in a manner similar to the method of D. R. O'Reilly et al (Baculovirus Expression Vectors: A Laboratory Manual (1992)). Recombinant baculoviruses were isolated by transfecting 4 μg of baculovirus transfer vector DNA into SF9 insect cells (2×10^8) along with 200 ng of linearized baculovirus plasmid DNA by the calcium phosphate method. See M. D. Summers and G. E. Smith, A Manual of Methods for Baculovirus Vectors and Insect Cell Culture Procedures, Texas Agric. Exp. Station Bull. 1555 (1987). Recombinant viruses were purified by three rounds of plaque purification and high titer (10^7-10^8 pfu/ml) stocks of virus were prepared. For large scale production, SF9 insect cells were infected in 10 liter fermentors (0.5×10^6/ml) with the recombinant baculovirus stock such that the multiplicity of infection was 0.1. After 72 hours the cells were centrifuged and the cell pellet homogenized in Tris/Sucrose (50 mM: 25%, pH 8.0) containing 1% 3-[(3-cholamidopropyl)dimethylammonio]-1-propanesulfonate (CHAPS). The homogenate was centrifuged at 10,000×G for 30 minutes, and the resultant supernatant was stored at −80° C. before being assayed for COX activity. […]
(§2) b. Assay for COX-1 and COX-2 activitv
COX activity was assayed as PGE2 formed/μg protein/time using an ELISA to detect the prostaglandin released. CHAPS-solubilized insect cell membranes containing the appropriate COX enzyme were incubated in a potassium phosphate buffer (50 mM, pH 8.0) containing epinephrine, phenol, and heme with the addition of arachidonic acid (10 μM). […] The PGE2 formed was measured by standard ELISA technology (Cayman Chemical).

COX-2 = molecular target: T2, COX-2 (UniProt P35354); assay: COX-2 activity in vitro (PGE2 ELISA, recombinant enzyme); type: biochemical, human or murine; settings: recombinant COX-2, arachidonic acid 10 μM
T2 sequence (P35354 1-604): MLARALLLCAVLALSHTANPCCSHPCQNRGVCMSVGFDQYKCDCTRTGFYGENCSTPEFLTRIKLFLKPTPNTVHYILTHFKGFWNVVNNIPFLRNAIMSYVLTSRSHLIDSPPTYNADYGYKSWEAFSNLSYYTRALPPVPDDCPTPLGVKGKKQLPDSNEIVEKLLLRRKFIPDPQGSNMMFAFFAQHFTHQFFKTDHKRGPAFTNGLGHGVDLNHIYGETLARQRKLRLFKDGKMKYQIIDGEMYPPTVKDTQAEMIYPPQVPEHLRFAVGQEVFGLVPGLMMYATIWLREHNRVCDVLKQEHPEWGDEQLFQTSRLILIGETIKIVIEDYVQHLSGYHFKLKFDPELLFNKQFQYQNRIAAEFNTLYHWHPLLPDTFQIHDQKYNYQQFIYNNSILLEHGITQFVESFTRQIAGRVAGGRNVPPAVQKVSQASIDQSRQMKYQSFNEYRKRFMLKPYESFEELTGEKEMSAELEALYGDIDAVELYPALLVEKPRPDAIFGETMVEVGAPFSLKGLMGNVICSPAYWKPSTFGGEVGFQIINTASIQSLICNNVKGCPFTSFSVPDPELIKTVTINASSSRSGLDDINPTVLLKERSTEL
Description: Evaluation of COX-1 and COX-2 activity in vitro
The COX-2 inhibition activity of the compounds of this invention illustrated in the Examples was determined by the following methods. a. Preparation of recombinant COX baculoviruses
as §1, §2
COX activity was assayed as PGE2 formed/μg protein/time using an ELISA to detect the prostaglandin released. […] The PGE2 formed was measured by standard ELISA technology (Cayman Chemical).

carrageenan foot edema = assay: Rat carrageenan foot pad edema test; type: in vivo; settings: male Sprague-Dawley rats, oral, 3 h after carrageenan
Description: Rat Carrageenan Foot Pad Edema Test
The carrageenan foot edema test was performed with materials, reagents and procedures essentially as described by Winter, et al., (Proc. Soc. Exp. Biol. Med., 111, 544 (1962)). Male Sprague-Dawley rats were selected in each group so that the average body weight was as close as possible. Rats were fasted with free access to water for over sixteen hours prior to the test. The rats were dosed orally (1 mL) with compounds suspended in vehicle containing 0.5% methylcellulose and 0.025% surfactant, or with vehicle alone. One hour later a subplantar injection of 0.1 mL of 1% solution of carrageenan/sterile 0.9% saline was administered and the volume of the injected foot was measured with a displacement plethysmometer connected to a pressure transducer with a digital indicator. Three hours after the injection of the carrageenan, the volume of the foot was again measured. The average foot swelling in a group of drug-treated animals was compared with that of a group of placebo-treated animals and the percentage inhibition of edema was determined (Otterness and Bliven, Laboratory Models for Testing NSAIDs, in Non-steroidal Anti-Inflammatory Drugs, (J. Lombardino, ed. 1985)).

Row | IC50 (5-lipoxygenase (5-LO)) [µM] | IC50 (COX-1) [µM] | IC50 (COX-2) [µM] | melting point | Compound | RAT PAW EDEMA % Inhibition @ 10 mg/kg body weight (carrageenan foot edema) [%]
1 | 12.3 | 53.5 | 6.6 |  | NC(=O)N(O)Cc1cc(-c2ccc(Cl)cc2)n(-c2ccc(S(N)(=O)=O)cc2)n1 [Example 1, N′-[[1-[4-(Aminosulfonyl)phenyl]-5-(4-chlorophenyl)-1H-pyrazol-3-yl]methyl]-N′-hydroxyurea] | 
2 | 0.05 | > 100 | 5.1 |  | CN(O)C(=O)CCc1nc(-c2ccc(F)cc2)c(-c2ccc(S(C)(=O)=O)cc2)o1 [Example 2, 4-(4-Fluorophenyl)-N-hydroxy-N-methyl-5-[(4-methylsulfonyl)phenyl]-2-oxazolepropanamide] | 2
3 |  |  |  | 110 to 135 °C (dec.) | CN(O)C(=O)Cc1cc(-c2ccc(Cl)cc2)n(-c2ccc(S(N)(=O)=O)cc2)n1 [Example 3, [1-[4-(Aminosulfonyl)phenyl]-5-(4-chlorophenyl)-1H-pyrazol-3-yl]-N-hydroxy-N-methyl-ethanamide] | 
4 |  | 12.5 | 0.3 | 165 to 169.7 °C | NS(=O)(=O)c1ccc(-c2nc(CCCC(=O)NO)oc2-c2ccc(Cl)c(Cl)c2)cc1 [Example 4, 4-[(4-Aminosulfonyl)phenyl]-5-(3,4-dichlorophenyl)-N-hydroxy-2-oxazole-butanamide] | 
